Experimental data taken from publication PMC10994248 (The Oncologist, 2024).

Assay: Phase I safety and tolerability (TEAEs, DLTs, MTD, DRDE) in patients with advanced solid tumors
Format: in vivo, human
Procedure: This 2-part, open-label, phase I study was conducted at the MD Anderson Cancer Center in Texas, USA and the Cancer Hospital Chinese Academy of Medical Sciences in Beijing, China. […] This was followed by a dose-expansion phase, the primary objective of which was to confirm the safety and tolerability of tinengotinib at the DRDE. Secondary objectives were to characterize the pharmacokinetics and preliminary efficacy of tinengotinib.
Dose escalation was guided by an adaptive Bayesian logistic regression model using the Escalation with Overdose Control principle.[6],[7] Study data (including DLTs, grade 2 adverse events during cycle 1, and pharmacokinetic data) were reviewed by the sponsor and trial investigators at each dose level and used to guide dose-escalation decisions. MTD was based on the Bayesian model, but with consideration given to available safety and tolerability data. DRDE was based on an evaluation of all available data (safety, clinical activity, and pharmacokinetics).
After determination of the DRDE, the dose-expansion phase was opened to further characterize safety and pharmacokinetics, and to assess preliminary efficacy.
Routine safety assessments of adverse events, laboratory tests (hematology, coagulation, biochemistry, and urinalysis), vital signs, and 12-lead electrocardiograms were performed. Adverse events were graded according to the National Cancer Institute Common Terminology Criteria for Adverse Events (CTCAE), version 5.0.

[1] = dose escalation (n = 40), any grade
[2] = dose escalation (n = 40), grade ≥3
[3] = dose expansion (12 mg, n = 8), any grade
[4] = dose expansion (12 mg, n = 8), grade ≥3

## tinengotinib
Dose escalation 12 mg (n=12)
  Patients with study drug-related TEAE leading to study drug permanent discontinuation: 1 (8.3) n (%)
  Patients with study drug-related grade ≥3 TEAE: 6 (50.0) n (%)
  Patients with study drug-related treatment-emergent SAE: 0 n (%)
  Patients with treatment-emergent SAE: 5 (41.7) n (%)
Dose escalation 15 mg (n=6)
  Patients with AE: 6 (100) n (%)
  Patients with TEAE: 6 (100) n (%)
  Patients with TEAE leading to death: 0 n (%)
  Patients with TEAE leading to dose adjustment/temporary interruption: 4 (66.7) n (%)
  Patients with TEAE leading to study drug permanent discontinuation: 3 (50.0) n (%)
  Patients with grade ≥3 TEAE: 5 (83.3) n (%)
  Patients with study drug-related TEAE: 5 (83.3) n (%)
  Patients with study drug-related TEAE leading to dose adjustment/temporary interruption: 3 (50.0) n (%)
  Patients with study drug-related TEAE leading to study drug permanent discontinuation: 0 n (%)
  Patients with study drug-related grade ≥3 TEAE: 3 (50.0) n (%)
  Patients with study drug-related treatment-emergent SAE: 1 (16.7) n (%)
  Patients with treatment-emergent SAE: 4 (66.7) n (%)
[1]
  Study drug-related TEAE: 33 (82.5) No. (%)
  Study drug-related TEAE: Alanine aminotransferase increased: 4 (10.0) No. (%)
  Study drug-related TEAE: Aspartate aminotransferase increased: 4 (10.0) No. (%)
  Study drug-related TEAE: Blood thyroid-stimulating hormone increased: 4 (10.0) No. (%)
  Study drug-related TEAE: Decreased appetite: 5 (12.5) No. (%)
  Study drug-related TEAE: Diarrhea: 15 (37.5) No. (%)
  Study drug-related TEAE: Dry mouth: 5 (12.5) No. (%)
  Study drug-related TEAE: Hypertension: 19 (47.5) No. (%)
  Study drug-related TEAE: Myalgia: 5 (12.5) No. (%)
  Study drug-related TEAE: Nausea: 11 (27.5) No. (%)
  Study drug-related TEAE: Palmar-plantar erythrodysesthesia syndrome: 10 (25.0) No. (%)
  Study drug-related TEAE: Proteinuria: 6 (15.0) No. (%)
  Study drug-related TEAE: Stomatitis: 9 (22.5) No. (%)
  Study drug-related TEAE: Vomiting: 10 (25.0) No. (%)
  Study drug-related serious TEAE: 5 (12.5) No. (%)
[2]
  Study drug-related TEAE: 16 (40.0) No. (%)
  Study drug-related TEAE: Alanine aminotransferase increased: 0 No. (%)
  Study drug-related TEAE: Aspartate aminotransferase increased: 0 No. (%)
  Study drug-related TEAE: Blood thyroid-stimulating hormone increased: 0 No. (%)
  Study drug-related TEAE: Decreased appetite: 0 No. (%)
  Study drug-related TEAE: Diarrhea: 1 (2.5) No. (%)
  Study drug-related TEAE: Dry mouth: 0 No. (%)
  Study drug-related TEAE: Hypertension: 9 (22.5) No. (%)
  Study drug-related TEAE: Myalgia: 0 No. (%)
  Study drug-related TEAE: Nausea: 1 (2.5) No. (%)
  Study drug-related TEAE: Palmar-plantar erythrodysesthesia syndrome: 1 (2.5) No. (%)
  Study drug-related TEAE: Proteinuria: 0 No. (%)
  Study drug-related TEAE: Stomatitis: 2 (5.0) No. (%)
  Study drug-related TEAE: Vomiting: 0 No. (%)
  Study drug-related serious TEAE: 0 No. (%)
Dose escalation total (n=40)
  Patients with AE: 39 (97.5) n (%)
  Patients with TEAE: 39 (97.5) n (%)
  Patients with TEAE leading to death: 0 n (%)
  Patients with TEAE leading to dose adjustment/temporary interruption: 24 (60.0) n (%)
  Patients with TEAE leading to study drug permanent discontinuation: 12 (30.0) n (%)
  Patients with grade ≥3 TEAE: 26 (65.0) n (%)
  Patients with study drug-related TEAE: 33 (82.5) n (%)
  Patients with study drug-related TEAE leading to dose adjustment/temporary interruption: 18 (45.0) n (%)
  Patients with study drug-related TEAE leading to study drug permanent discontinuation: 6 (15.0) n (%)
  Patients with study drug-related grade ≥3 TEAE: 16 (40.0) n (%)
  Patients with study drug-related treatment-emergent SAE: 5 (12.5) n (%)
  Patients with treatment-emergent SAE: 18 (45.0) n (%)
Dose expansion 12 mg (n=8)
  Patients with AE: 8 (100) n (%)
  Patients with TEAE: 8 (100) n (%)
  Patients with TEAE leading to death: 0 n (%)
  Patients with TEAE leading to dose adjustment/temporary interruption: 7 (87.5) n (%)
  Patients with TEAE leading to study drug permanent discontinuation: 0 n (%)
  Patients with grade ≥3 TEAE: 5 (62.5) n (%)
  Patients with study drug-related TEAE: 8 (100) n (%)
  Patients with study drug-related TEAE leading to dose adjustment/temporary interruption: 7 (87.5) n (%)
  Patients with study drug-related TEAE leading to study drug permanent discontinuation: 0 n (%)
  Patients with study drug-related grade ≥3 TEAE: 5 (62.5) n (%)
  Patients with study drug-related treatment-emergent SAE: 3 (37.5) n (%)
  Patients with treatment-emergent SAE: 4 (50.0) n (%)
[3]
  Study drug-related TEAE: 8 (100) No. (%)
  Study drug-related TEAE: Alanine aminotransferase increased: 1 (12.5) No. (%)
  Study drug-related TEAE: Aspartate aminotransferase increased: 1 (12.5) No. (%)
  Study drug-related TEAE: Blood thyroid-stimulating hormone increased: 3 (37.5) No. (%)
  Study drug-related TEAE: Decreased appetite: 2 (25.0) No. (%)
  Study drug-related TEAE: Diarrhea: 1 (12.5) No. (%)
  Study drug-related TEAE: Dry mouth: 0 No. (%)
  Study drug-related TEAE: Hypertension: 5 (62.5) No. (%)
  Study drug-related TEAE: Myalgia: 0 No. (%)
  Study drug-related TEAE: Nausea: 0 No. (%)
  Study drug-related TEAE: Palmar-plantar erythrodysesthesia syndrome: 4 (50.0) No. (%)
  Study drug-related TEAE: Proteinuria: 0 No. (%)
  Study drug-related TEAE: Stomatitis: 5 (62.5) No. (%)
  Study drug-related TEAE: Vomiting: 0 No. (%)
[4]
  Study drug-related TEAE: 5 (62.5) No. (%)
  Study drug-related TEAE: Alanine aminotransferase increased: 0 No. (%)
  Study drug-related TEAE: Aspartate aminotransferase increased: 0 No. (%)
  Study drug-related TEAE: Blood thyroid-stimulating hormone increased: 0 No. (%)
  Study drug-related TEAE: Decreased appetite: 0 No. (%)
  Study drug-related TEAE: Diarrhea: 0 No. (%)
  Study drug-related TEAE: Dry mouth: 0 No. (%)
  Study drug-related TEAE: Hypertension: 4 (50.0) No. (%)
  Study drug-related TEAE: Myalgia: 0 No. (%)
  Study drug-related TEAE: Nausea: 0 No. (%)
  Study drug-related TEAE: Palmar-plantar erythrodysesthesia syndrome: 0 No. (%)
  Study drug-related TEAE: Proteinuria: 0 No. (%)
  Study drug-related TEAE: Stomatitis: 0 No. (%)
  Study drug-related TEAE: Vomiting: 0 No. (%)
  Study drug-related serious TEAE: 0 No. (%)
Orally once daily, 28-day cycle
  Dose recommended for dose expansion (DRDE): 12 mg
Total (n = 48), any grade
  Study drug-related TEAE: 41 (85.4) No. (%)
  Study drug-related TEAE: Alanine aminotransferase increased: 5 (10.4) No. (%)
  Study drug-related TEAE: Aspartate aminotransferase increased: 5 (10.4) No. (%)
  Study drug-related TEAE: Blood thyroid-stimulating hormone increased: 7 (14.6) No. (%)
  Study drug-related TEAE: Decreased appetite: 7 (14.6) No. (%)
  Study drug-related TEAE: Diarrhea: 16 (33.3) No. (%)
  Study drug-related TEAE: Dry mouth: 5 (10.4) No. (%)
  Study drug-related TEAE: Hypertension: 24 (50.0) No. (%)
  Study drug-related TEAE: Myalgia: 5 (10.4) No. (%)
  Study drug-related TEAE: Nausea: 11 (22.9) No. (%)
  Study drug-related TEAE: Palmar-plantar erythrodysesthesia syndrome: 14 (29.2) No. (%)
  Study drug-related TEAE: Proteinuria: 6 (12.5) No. (%)
  Study drug-related TEAE: Stomatitis: 14 (29.2) No. (%)
  Study drug-related TEAE: Vomiting: 10 (20.8) No. (%)
Total (n = 48), grade ≥3
  Study drug-related TEAE: 21 (43.8) No. (%)
  Study drug-related TEAE: Alanine aminotransferase increased: 0 No. (%)
  Study drug-related TEAE: Aspartate aminotransferase increased: 0 No. (%)
  Study drug-related TEAE: Blood thyroid-stimulating hormone increased: 0 No. (%)
  Study drug-related TEAE: Decreased appetite: 0 No. (%)
  Study drug-related TEAE: Diarrhea: 1 (2.1) No. (%)
  Study drug-related TEAE: Dry mouth: 0 No. (%)
  Study drug-related TEAE: Hypertension: 13 (27.1) No. (%)
  Study drug-related TEAE: Myalgia: 0 No. (%)
  Study drug-related TEAE: Nausea: 1 (2.1) No. (%)
  Study drug-related TEAE: Palmar-plantar erythrodysesthesia syndrome: 1 (2.1) No. (%)
  Study drug-related TEAE: Proteinuria: 0 No. (%)
  Study drug-related TEAE: Stomatitis: 2 (4.2) No. (%)
  Study drug-related TEAE: Vomiting: 0 No. (%)
  Study drug-related serious TEAE: 0 No. (%)
Total (n=48)
  Patients with AE: 47 (97.9) n (%)
  Patients with TEAE: 47 (97.9) n (%)
  Patients with TEAE leading to death: 0 n (%)
  Patients with TEAE leading to dose adjustment/temporary interruption: 31 (64.6) n (%)
  Patients with TEAE leading to study drug permanent discontinuation: 12 (25.0) n (%)
  Patients with grade ≥3 TEAE: 31 (64.6) n (%)
  Patients with study drug-related TEAE: 41 (85.4) n (%)
  Patients with study drug-related TEAE leading to dose adjustment/temporary interruption: 25 (52.1) n (%)
  Patients with study drug-related TEAE leading to study drug permanent discontinuation: 6 (12.5) n (%)
  Patients with study drug-related grade ≥3 TEAE: 21 (43.8) n (%)
  Patients with study drug-related treatment-emergent SAE: 8 (16.7) n (%)
  Patients with treatment-emergent SAE: 22 (45.8) n (%)
